Where two headings read alike, the source gives them in different places.
Key:
[1] = Microsomal stability assay; format: in vitro ADME; details: 5 μM compound, 1 mg/mL liver microsome protein, 37° C., species not given
Protocol: Microsomal stability was monitored by generation of depletion-time profiles in microsomes from a range of species (male CD-1 mouse, male Sprague-Dawley rat, male Beagle dog, male Cynomolgus monkey and pooled mixed gender human). Compound spiking solutions were made up by diluting down the compound stock solution in DMSO (typically 10 mM) to give a solution in acetonitrile (0.5 mM). […].
The reaction was initiated by the addition (250 μL) of the pre-incubated RGS to the pre-incubated microsome/VRT/PB mixture (pre-incubation in both instances was for 10 minutes at 37° C.). Samples were incubated within Eppendorf vials (1.5 ml) on a heater shaker (DPC Micromix 5 (settings; form 20, amplitude 4) modified to be heated, to 37° C., by two plate heaters fixed to the deck and controlled by a Packard Manual Heater) attached to a Multiprobe II HT Ex automated liquid handler. The liquid handler was programmed (WinPREP software) to sample the microsomal incubation mixture after 0, 2, 10, 30 and 60 minutes of incubation and transfer an aliquot (100 μL) to a stop block (96-well block) containing 100 μL of chilled methanol. The % organic in the stop mixture was optimized for analysis by addition of appropriate volumes of aqueous/organic (typically 100 μl of 50:50 methanol:water).
Prior to analysis the stop block was placed on a shaker (DPC Micromix 5; 10 min, form 20, amplitude 5) to precipitate out proteins. The block was then centrifuged (Jouan GR412; 2000 rpm, 15 min, 4° C.). A sample aliquot (200 μL) was then transferred to an analysis block and the block was centrifuged again (Jouan GR412; 2000 rpm, 5 min, 4° C.) prior to being sent for analysis. Depletion profiles were determined by monitoring the disappearance of VRT by liquid chromatography-tandem mass spectrometry (LC-MS/MS). Samples were injected (20 μL; Agilent 1100 liquid chromatographic system equipped with autosampler) onto an analytical column. Mobile phase consisted of Water+0.05% (v/v) formic acid (A) and methanol+0.05% (v/v) formic acid (B).
Running a gradient method optimized for the compound of interest carried out the compound elution from analytical column. The total run time was 6 minutes with a flow rate of 0.35 mL/min. The entire column effluent entered the electrospray ionization source (positive mode) of a Micromass Quattro LC tandem mass spectrometer between 0.5 and 5.9 min of the run. The mass spectrometry was optimized for the compound of interest. All incubations were conducted in duplicate and results were expressed as % parent remaining at either 30 minutes or 60 minutes relative to 0 minutes sample.

Aurora-1 (Aurora B) = Aurora-1 (Aurora B) (Homo sapiens, UniProt Q96GD4); test: Aurora-1 (Aurora B) inhibition assay (radiometric); format: biochemical
Protocol: An assay buffer solution was prepared which consisted of 25 mM HEPES (pH 7.5), 10 mM MgCl2, 0.1% BSA and 10% glycerol. […] To 22 μL of the Aurora-B solution, in a 96-well plate, was added 2 μl of a compound stock solution in DMSO and the mixture allowed to equilibrate for 10 minutes at 25° C. The enzyme reaction was initiated by the addition of 16 μl stock [γ-^33P]-ATP solution (˜20 nCi/μL) prepared in assay buffer, to a final assay concentration of 800 μM. The reaction was stopped after 3 hours by the addition of 16 μL 500 mM phosphoric acid and the levels of ^33P incorporation into the peptide substrate were determined by the following method.
A phosphocellulose 96-well plate (Millipore, Cat no. MAPHNOB50) was pre-treated with 100 μL of a 100 mM phosphoric acid prior to the addition of the enzyme reaction mixture (40 μL). The solution was left to soak on to the phosphocellulose membrane for 30 minutes and the plate subsequently washed four times with 200 μL of a 100 mM phosphoric acid. […] Levels of non-enzyme catalyzed background radioactivity were determined by adding 16 μL of the 500 mM phosphoric acid to control wells, containing all assay components (which acts to denature the enzyme), prior to the addition of the [γ-^33P]-ATP solution. Levels of enzyme catalyzed ^33P incorporation were calculated by subtracting mean background counts from those measured at each inhibitor concentration. […] Ki values were calculated from initial rate data by non-linear regression using the Prism software package (Prism 3.0, Graphpad Software, San Diego, Calif.).

JAK3 = target: T1, JAK3 (Homo sapiens, UniProt P52333); test: biochemical
T1 sequence (P52333 1-1124): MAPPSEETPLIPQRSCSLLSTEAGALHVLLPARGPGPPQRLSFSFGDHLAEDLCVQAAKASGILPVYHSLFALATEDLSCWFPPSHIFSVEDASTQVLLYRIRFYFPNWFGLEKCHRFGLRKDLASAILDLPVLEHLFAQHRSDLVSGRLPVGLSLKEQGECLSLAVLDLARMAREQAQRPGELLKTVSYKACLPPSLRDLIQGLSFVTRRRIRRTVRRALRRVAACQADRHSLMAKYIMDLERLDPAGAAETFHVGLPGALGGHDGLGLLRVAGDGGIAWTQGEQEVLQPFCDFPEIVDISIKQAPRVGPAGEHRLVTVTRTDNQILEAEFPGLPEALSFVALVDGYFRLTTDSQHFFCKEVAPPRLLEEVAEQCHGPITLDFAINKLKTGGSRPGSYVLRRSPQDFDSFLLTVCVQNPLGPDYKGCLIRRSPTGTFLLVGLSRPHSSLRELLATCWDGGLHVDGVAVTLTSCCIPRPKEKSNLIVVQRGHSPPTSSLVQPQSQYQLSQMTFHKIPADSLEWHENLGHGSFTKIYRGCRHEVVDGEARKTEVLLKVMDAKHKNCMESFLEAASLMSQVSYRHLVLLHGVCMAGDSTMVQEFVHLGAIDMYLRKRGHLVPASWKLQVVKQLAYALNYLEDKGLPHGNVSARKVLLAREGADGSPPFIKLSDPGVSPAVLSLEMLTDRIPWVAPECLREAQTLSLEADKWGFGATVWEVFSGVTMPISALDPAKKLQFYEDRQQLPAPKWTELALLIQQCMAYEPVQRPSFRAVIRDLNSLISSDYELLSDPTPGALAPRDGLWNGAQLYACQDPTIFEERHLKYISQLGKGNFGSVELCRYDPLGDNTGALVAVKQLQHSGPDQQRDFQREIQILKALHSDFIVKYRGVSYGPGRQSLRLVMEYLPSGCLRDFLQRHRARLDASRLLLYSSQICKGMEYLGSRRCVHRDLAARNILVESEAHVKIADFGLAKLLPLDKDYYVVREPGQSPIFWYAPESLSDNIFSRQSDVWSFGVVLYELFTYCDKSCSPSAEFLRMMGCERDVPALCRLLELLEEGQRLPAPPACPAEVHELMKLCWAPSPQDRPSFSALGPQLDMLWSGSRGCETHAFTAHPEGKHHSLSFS

[2] = 800 μM ATP, Kemptide, 25° C., read-out: Aurora B Ki
[3] = 5 μM ATP, 1 μM poly(Glu)4Tyr, 25° C., 1 nM JAK3, read-out: JAK-3 Ki

Chain of Aurora-1 (Aurora B) (Q96GD4 whole entry): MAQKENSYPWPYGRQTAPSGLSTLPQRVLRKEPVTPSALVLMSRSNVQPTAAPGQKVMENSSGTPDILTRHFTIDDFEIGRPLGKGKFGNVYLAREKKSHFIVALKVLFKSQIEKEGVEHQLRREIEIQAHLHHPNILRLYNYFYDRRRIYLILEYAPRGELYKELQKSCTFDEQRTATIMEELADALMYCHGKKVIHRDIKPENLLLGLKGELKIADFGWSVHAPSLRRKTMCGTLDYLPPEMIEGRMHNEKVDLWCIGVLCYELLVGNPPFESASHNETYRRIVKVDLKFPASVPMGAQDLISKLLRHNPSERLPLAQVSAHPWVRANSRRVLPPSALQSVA

| SMILES | Microsomal Stability (% remaining after 30 min.) [1] | Microsomal Stability (% remaining after 60 min.) [1] | Ki (Aurora-1 (Aurora B); [2]) | Ki (JAK3) | Ki (JAK3; [3]) | Ki (Aurora-1 (Aurora B)) |
| --- | --- | --- | --- | --- | --- | --- |
| Cc1cc(Nc2cc(N3CCC3)nc(Sc3ccc(NC(=O)c4ccccc4Cl)cc3)n2)[nH]n1 [Compound I-1, N-{4-[4-Azetidin-1-yl-6-(5-methyl-2H-pyrazol-3-ylamino)-pyrimidin-2-ylsulfanyl]-phenyl}-2-chloro-benzamide] | 96% | 79% | 7 nM | 160 nM | – | – |
| Cc1cc(Nc2cc(N3CCC3)nc(Sc3ccc(NC(=O)c4ccccc4F)cc3)n2)[nH]n1 [Compound I-3] | 51% | 66% | 10 nM | – | – | – |
| COc1ccccc1C(=O)Nc1ccc(Sc2nc(Nc3cc(C)[nH]n3)cc(N3CCC3)n2)cc1 [Compound I-6] | 80% | – | 26 nM | – | – | – |
| Cc1cc(Nc2cc(N3CCC3)nc(Sc3ccc(NC(=O)c4c(Cl)cccc4Cl)cc3)n2)n[nH]1 [Compound I-11] | – | 69% | 7 nM | – | – | – |
| Cc1cc(Nc2cc(N3CCC3)nc(Sc3ccc(NC(=O)c4cccc(C(F)(F)F)c4F)cc3)n2)n[nH]1 [Compound I-13] | 85% | 74% | – | 220 nM | – | 6 nM |
| Cc1cc(Nc2cc(N3CCC3)nc(Sc3ccc(NC(=O)c4ccccc4C(F)(F)F)cc3)n2)[nH]n1 [Compound I-14] | 103% | 78% | 4.5 nM | – | – | – |
| Cc1cc(Nc2cc(N3CCC3)nc(Sc3ccc(NC(=O)c4cccc(Cl)c4F)cc3)n2)n[nH]1 [Compound I-15] | 73% | 84% | 7.5 nM | – | 120 nM | – |
| O=C(Nc1ccc(Sc2nc(Nc3cc(C4CC4)[nH]n3)cc(N3CCC3)n2)cc1)c1ccccc1Cl [Compound I-17] | 93% | – | 6 nM | – | 79 nM | – |
| Cc1cc(Nc2cc(N3CCC3)nc(Sc3ccc(NC(=O)c4ccccc4C(F)F)cc3)n2)[nH]n1 [Compound I-19] | 109% | 91% | 19 nM | – | – | – |
| Cc1cc(Nc2cc(N3CCC3)nc(Sc3ccc(NC(=O)c4cccc(C)c4Cl)cc3)n2)n[nH]1 [Compound I-20] | 53% | – | 6 nM | 61 nM | – | – |
| Cc1cc(Nc2cc(N3CCC3)nc(Sc3ccc(NC(=O)c4cc(Cl)ccc4Cl)cc3)n2)n[nH]1 [Compound I-21] | 86% | – | 6.5 nM | – | – | – |
| CCc1cccc(C(=O)Nc2ccc(Sc3nc(Nc4cc(C)[nH]n4)cc(N4CCC4)n3)cc2)c1Cl [Compound I-22] | 1% | 46% | < 6 nM | 62 nM | – | – |

Further lines, with some results ahead:

| Microsomal Stability (% remaining after 30 min.) [1] | Microsomal Stability (% remaining after 60 min.) [1] | Ki (Aurora-1 (Aurora B); [2]) | Ki (JAK3) | Ki (JAK3; [3]) | SMILES | Ki (Aurora-1 (Aurora B)) |
| --- | --- | --- | --- | --- | --- | --- |
| 107% | 77% | 6.5 nM | – | – | Cc1cc(Nc2cc(N3CCC3)nc(Sc3ccc(NC(=O)c4c(F)cccc4F)cc3)n2)[nH]n1 [Compound I-2, N-{4-[4-Azetidin-1-yl-6-(5-methyl-2H-pyrazol-3-ylamino)-pyrimidin-2-ylsulfanyl]-phenyl}-2,6-Difluoro-benzamide] | – |
| 76% | – | – | – | – | Cc1cccc(C(=O)Nc2ccc(Sc3nc(Nc4cc(C)[nH]n4)cc(N4CCC4)n3)cc2)c1 [Compound I-4] | 24 nM |
| 98% | 65% | 14 nM | – | – | Cc1cc(Nc2cc(N3CCC3)nc(Sc3ccc(NC(=O)c4ccccc4C)cc3)n2)[nH]n1 [Compound I-5] | – |
| 100% | – | 11 nM | – | – | Cc1cc(Nc2cc(N3CCC3)nc(Sc3ccc(NC(=O)c4ccccc4OC(F)(F)F)cc3)n2)[nH]n1 [Compound I-8] | – |
| 94% | – | 19 nM | – | – | Cc1cc(Nc2cc(N3CCC3)nc(Sc3ccc(NC(=O)c4cccc(Cl)c4)cc3)n2)n[nH]1 [Compound I-12] | – |

— patent US8557833B2, “Aminopyrimidines useful as kinase inhibitors” (priority 2005, dated 2013)
